What was measured:
[1] = tested on: T1, periplasmic L-ASNase (PCH199 L-ASNase, type II); assay: Michaelis-Menten non-linear regression (assay details not told); format: biochemical, Pseudomonas sp. PCH199; details: 0.02-0.5 mM substrate; assay pH and temperature not stated for L-glutamine
T1 construct: gene ansB; native, purified from periplasm by osmotic shock (ammonium sulfate, Q-Sepharose, Superdex 200)

[2] = tested on: T1, periplasmic L-ASNase (PCH199 L-ASNase, type II); assay: Nessler ammonia assay at […] nm, non-linear Michaelis-Menten fit; format: biochemical, Pseudomonas sp. PCH199; details: 0.1-3.0 mM substrate; standard assay 50 mM Tris-HCl pH 8.5, 37 ℃ (temperature of the kinetic run not restated)

| Km [1] [µM] | Km [2] [µM] | Structure (SMILES) |
| --- | --- | --- |
| 34 | – | NC(=O)CC[C@H](N)C(=O)O [L-glutamine] |
| – | 164 ± 9 | NC(=O)C[C@H](N)C(=O)O [L-asparagine] |
